Reference: ChEMBL document CHEMBL1136828, “Macrocyclic inhibitors of the bacterial cell wall biosynthesis enzyme MurD” (Bioorg Med Chem Lett, 2003)

experiment: Inhibitory activity against enzyme MurD isolated from Escherichia coli

SMILES	IC50 [nM]
C[C@@H]1NC(=O)[C@H](COC(C)(C)C)NC(=O)CCCCCC[C@H](C(=O)O)NC1=O	1900
C[C@@H]1NC(=O)CCCCCC[C@H](C(=O)O)NC(=O)[C@H](C)NC1=O	1500
C[C@@H]1NC(=O)[C@H](COC(C)(C)C)NC(=O)CCCCCC[C@@H](C(=O)O)NC1=O	9000
C[C@@H]1NC(=O)CCCCCCC[C@H](C(=O)O)NC(=O)[C@H](C)NC1=O	1500
C[C@@H]1NC(=O)CCCCCCC[C@@H](C(=O)O)NC(=O)[C@H](C)NC1=O	3200
C[C@@H]1NC(=O)CCCCCC[C@@H](C(=O)O)NC(=O)[C@H](C)NC1=O	5100

The remaining lines, values ahead:

IC50 [nM]	SMILES
700	C[C@@H]1NC(=O)[C@H](CO)NC(=O)CCCCCC[C@H](C(=O)O)NC1=O
2300	C[C@@H]1NC(=O)[C@H](CO)NC(=O)CCCCCC[C@@H](C(=O)O)NC1=O
